Patent publication US11731977B2, “SGC stimulators” (Cyclerion Therapeutics, Inc., priority 2016, dated 2023)
Marks after values point to notes of the source that are not given here.

Assays:
rats [1] = assay: Inflammatory pain: kaolin, gait score (Example 13); type: in vivo, rat; details: Compound I-1 p.o. 10 mg/kg, 120 minutes after treatment
Experimental: Kaolin. Induction: In rats, unilateral arthritis was induced by an intra-articular injection of a 10% kaolin suspension into the knee joint of the right hind paw under gas anesthesia (3.5% isoflurane/3 L/min). Gait score: The gait score will be evaluated 3 h 30 min after kaolin administration by:
2: intermittent raising of the paw

rats [2] = assay: Post-operative pain: Brennan model, electronic Von Frey test (Example 13); type: in vivo, rat; details: Compound I-1 p.o. 10 mg/kg, 120 minutes after treatment
Source text: Surgery: Surgery was done under gas anesthesia (2.5% isoflurane/3 L/min). For all rats, the plantar aspect of the left hind paw was exposed and a 1 cm longitudinal incision was made using a surgical blade, through the skin and fascia of the plantar aspect of the foot, starting 0.5 cm from the proximal edge of the heel and extending toward the toes. The plantaris muscle was elevated and incised longitudinally whereas the insertions remained intact. After hemostasis with gentle pressure, the skin was stitched up with two sutures. After surgery, animals recovered in their cages.
Electronic Von Frey Test: Tactile allodynia was assessed using the electronic Von Frey test 24 h after surgery. […] The apparatus exerted a steady force on the hind paws. […] Each reaction threshold measurement was repeated three times for both hind paws with intervals of approximately 2 to 3 mins.

cGMP in rat CSF = assay: Rat CSF biomarker (cGMP) measurement (Example 7); type: in vivo
Experimental: This experiment was to determine the effect of different doses of a compound of the invention on the cGMP response as well as the compound concentration in rat CSF and compound concentration in rat plasma. Protocol. Each rat was sampled one time or multiple times with 3 or more days in between each dosing. Day before the experiment. Fast rats overnight with ad libitum access to water. Day of the experiment. Compound and cyclic guanosine monophosphate (cGMP) in rat CSF was determined following oral dosing. Male Sprague-Dawley rats with an indwelling catheter placed in the cisterna magna were used. The rats were dosed with 0 mg/kg (n=15), 3 mg/kg (n=19) and 10 mg/kg (n=20) of a compound of the invention formulated as a suspension in 0.5% methylcellulose, 0.5% Tween80. PO doses were administered by oral gavage and delivered to the stomach using a syringe and gavage tube. Following oral dosage administration, the gavage tube was flushed with approximately 0.5 mL of water to ensure complete delivery of the full dose. Plasma and CSF samples were collected under isoflurane anesthesia as follows: samples of CSF were collected at 1 hour and 6 hours post-dosing and samples of blood were collected 1 h post-dosing. CSF samples were collected through the intracisternal catheter. Approximately 20 μL of CSF and discard (dead volume is 14-16 μL); then withdraw approximately 50 μL of CSF in eppendorf tubes containing 5 μL of glacial acetic acid. Snap freeze CSF by immersion in liquid nitrogen. Blood samples (0.25 mL) were collected through retro-orbital sampling. These samples were kept on ice until processed for plasma. Blood samples were centrifuged at 3200 rpm for 10 minutes at approximately 5° C. within 1 hour of collection. Plasma was directly transferred to a 96-well plate tube (0.125 mL). Plug caps were placed on the tubes and the tubes frozen at approximately −70° C. and stored until analysis. Plasma was collected and analyzed for the presence of a compound. Quantitation of Compounds and cGMP. The compound of the invention, cGMP and the internal standard were extracted from plasma and CSF by precipitation. Samples were analyzed using liquid chromatography (LC) with tandem mass spectrometric detection (MS/MS) using electrospray ionization. The standard curve range was from 1 to 1000 ng/mL. Results of the compounds described herein in this assay are illustrated in Table 7 below (3 and 10 mg/kg dose). Statistics were determined by planned comparison t-tests.

[3] = system: R6/2 mice hippocampal slices; assay: Synaptic transmission and plasticity (LTP) in R6/2 mice hippocampal slices (Example 8); set-up: species or system mouse; details: R6/2 slices
Experimental: Improvements in synaptic transmission and plasticity, as measured by long term potentiation (LTP), is believed to indicate the potential of a compound to enhance memory. LTP is an electrophysiological phenomena that is commonly referred to as the a cellular phenomenon driving learning and memory.
Preparation of acute mice hippocampal slices. Experiments were carried out with 11 to 12 week-old R6/2 and WT mice provided by the Jackson Laboratory (USA). Hippocampal slices (350 μm thickness) were cut with a Macllwain tissue chopper in an ice-cold oxygenated sucrose solution (Saccharose 250, Glucose 11, NaHCO3 26, KCl 2, NaH2PO4 1.2, MgCl2 7, and CaCl2 0.5 in mM). The slices were incubated 1 hour at room temperature in ACSF of the following composition: Glucose 11, NaHCO3 25, NaCl 126, KCl 3.5, NaH2PO4 1.2, MgCl2 1.3, and CaCl2 2 in mM. Then, the slices were let to recover for at least 1 h.
Slice perfusion and temperature control. During the experiments, the slices were continuously perfused with the ACSF (bubbled with 95% O2-5% CO2) at the rate of 3 mL/min with a peristaltic pump (MEA chamber volume: ˜1 mL). Complete solution exchange in the MEA chamber was achieved 20 s after the switch of solutions. The perfusion liquid was continuously pre-heated at 37° C. just before reaching the MEA chamber with a heated-perfusion cannula (PH01, Multichannel Systems, Reutlingen, Germany). The temperature of the MEA chamber was maintained at 37±0.1° C. with a heating element located in the MEA amplifier headstage.
Input/Output (I/O)curve: from 100 to 800 μA, by 100 μA steps. The stimulus intensity was then set to a fixed value of 250 μA for the short- and long-term synaptic plasticity measurements.
Short-term plasticity properties: two pulses with a decreasing inter-stimuli interval (e.g. 300 ms, 200 ms, 100 ms, 50 ms, 25 ms) were applied. Compound application: fEPSP were recorded for 10 minutes in control conditions (to verify the baseline steadiness) followed by a 15-minute exposure to the compound (or 25 minutes in the presence of vehicle only for control slices). A second I/O protocol and paired-pulse protocol were applied, as described previously, in the continuous presence of the compound.
Long-Term Potentiation (LTP); Following a 10-minute control period (in the presence of the compound or vehicle for control slices), LTP was induced by a 10×TBS. Potentiation of synaptic transmission was then monitored for an additional 60-minute period (in the continuous presence of the compound or vehicle for control slices).

rats [4] = assay: Acute and tonic pain: healthy rats, tail flick test (Example 13); details: Compound I-1 p.o. 10 mg/kg, 120 minutes after treatment
Experimental: Tail Flick Test. A radiant heat was applied on the tail. When the rat felt discomfort, it reacted by a sudden tail movement (tail flick) which automatically stopped the stimulation and the timer for the measurement by the animal reaction time or nociceptive reaction latency (period from the beginning of the stimulation until detection of the response of the animal). A cut-off was previously fixed at 10 sec in order to prevent tissue damage.
Testing: 120 minutes after treatment. N=4/model/test. Results are expressed for each group as a percentage of activity calculated from the mean value of the vehicle-treated animals and compared to naïve animals, control paw, or cut-off value, depending on the test.

Fc1ccccc1Cc1nc(-c2nc(C(F)(F)F)n[nH]2)cn2ccnc12 [Compound I-1, 8-(2-fluorobenzyl)-6-(3-(trifluoromethyl)-1H-1,2,4-triazol-5-yl)imidazo[1,2-a]pyrazine]
% of activity vs. vehicle (rats [1]): 40% | % of activity vs. vehicle (rats [2]): 31% | CSF Conc. (nM @ 1 h) (cGMP in rat CSF; 3 mg/kg PO): 7.2* nM | CSF Conc. (nM @ 6 h) (cGMP in rat CSF; 3 mg/kg PO): 6.7 nM | CSF Conc. (nM @ 1 h) (cGMP in rat CSF; 10 mg/kg PO): 14.8** nM | CSF Conc. (nM @ 6 h) (cGMP in rat CSF; 10 mg/kg PO): 13.8* nM | potentiation of the evoked-response amplitudes, stabilized level ([3]; 7 nM): around 25% | rescue of LTP impairment ([3]; 7 nM): failed to significantly rescue | fEPSP increase at endpoint after HFS (LTP) ([3]; 7 nM (R6/2 control 16±3%, WT 46±5%)): 26±6% | effect on short-term plasticity properties (paired pulses, 25 ms to 300 ms ISI) ([3]; 7 nM, 46 nM or 308 nM, exception 308 nM at 50 ms ISI): None of the evaluated Compound I-1 concentrations (7 nM, 46 nM or 308 nM) displayed a significant effect | effect on overall I/O characteristics ([3]; 7 nM, 46 nM, 308 nM): none of the 3 concentrations displayed a significant effect | potentiation of the evoked-response amplitudes, stabilized level ([3]; 46 nM): around 45% | fEPSP increase at endpoint after HFS (LTP) ([3]; 46 nM (R6/2 control 16±3%, WT 46±5%)): 44±12% | rescue of LTP impairment ([3]; 46 nM and 308 nM): completely restored the LTP deficit | potentiation of the evoked-response amplitudes, stabilized level ([3]; 308 nM): around 35% | fEPSP increase at endpoint after HFS (LTP) ([3]; 308 nM (R6/2 control 16±3%, WT 46±5%)): 37±9% | % of activity vs. vehicle (rats [4]): 25%
